Experimental data published in patent US11559537B2, “Combination therapies using caspase-1 dependent anticancer agents and PGE2 antagonists” (Trustees of Tufts College, priority 2017, dated 2023).
“And” between values parts separate entries of the source, which are not always exact repeats. Equal values may be shown once.

Columns and labels:
recombinant human DPPII = recombinant human DPPII (Homo sapiens (Human), UniProt Q9UHL4); assay: In vitro inhibition assay, dipeptidyl peptidase II; assay type: biochemical; conditions: Lys-Pro-AMC substrate, read-out: DPP2
recombinant human PREP = recombinant human PREP (Homo sapiens (Human), UniProt P48147); assay: In vitro inhibition assay, prolyl oligopeptidase; assay type: biochemical; conditions: Z-Gly-Pro-AMC substrate
Chain of recombinant human PREP (P48147 whole entry): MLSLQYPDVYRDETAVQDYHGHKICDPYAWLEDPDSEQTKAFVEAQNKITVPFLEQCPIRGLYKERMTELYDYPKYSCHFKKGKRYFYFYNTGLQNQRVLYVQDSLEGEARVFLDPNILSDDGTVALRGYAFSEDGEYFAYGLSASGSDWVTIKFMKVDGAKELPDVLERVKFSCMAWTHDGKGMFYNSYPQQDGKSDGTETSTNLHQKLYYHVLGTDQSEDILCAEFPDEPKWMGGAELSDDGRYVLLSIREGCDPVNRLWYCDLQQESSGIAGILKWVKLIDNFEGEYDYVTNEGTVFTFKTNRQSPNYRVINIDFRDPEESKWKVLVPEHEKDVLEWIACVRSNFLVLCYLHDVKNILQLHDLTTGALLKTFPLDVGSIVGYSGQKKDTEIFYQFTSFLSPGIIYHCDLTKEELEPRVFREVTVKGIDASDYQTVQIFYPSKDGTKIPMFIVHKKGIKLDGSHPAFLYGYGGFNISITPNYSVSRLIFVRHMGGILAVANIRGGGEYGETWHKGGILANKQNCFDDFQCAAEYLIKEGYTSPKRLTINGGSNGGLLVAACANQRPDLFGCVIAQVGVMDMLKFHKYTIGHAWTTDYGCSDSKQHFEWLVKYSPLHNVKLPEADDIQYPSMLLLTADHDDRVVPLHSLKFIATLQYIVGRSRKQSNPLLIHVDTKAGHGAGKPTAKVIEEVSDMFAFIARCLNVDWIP

recombinant human DPPIV = recombinant human DPPIV (Homo sapiens (Human), UniProt P27487); assay: In vitro inhibition assay, dipeptidyl peptidase IV; assay type: biochemical; conditions: Gly-Pro-AMC substrate, read-out: DPP4
Chain of recombinant human DPPIV (P27487 whole entry): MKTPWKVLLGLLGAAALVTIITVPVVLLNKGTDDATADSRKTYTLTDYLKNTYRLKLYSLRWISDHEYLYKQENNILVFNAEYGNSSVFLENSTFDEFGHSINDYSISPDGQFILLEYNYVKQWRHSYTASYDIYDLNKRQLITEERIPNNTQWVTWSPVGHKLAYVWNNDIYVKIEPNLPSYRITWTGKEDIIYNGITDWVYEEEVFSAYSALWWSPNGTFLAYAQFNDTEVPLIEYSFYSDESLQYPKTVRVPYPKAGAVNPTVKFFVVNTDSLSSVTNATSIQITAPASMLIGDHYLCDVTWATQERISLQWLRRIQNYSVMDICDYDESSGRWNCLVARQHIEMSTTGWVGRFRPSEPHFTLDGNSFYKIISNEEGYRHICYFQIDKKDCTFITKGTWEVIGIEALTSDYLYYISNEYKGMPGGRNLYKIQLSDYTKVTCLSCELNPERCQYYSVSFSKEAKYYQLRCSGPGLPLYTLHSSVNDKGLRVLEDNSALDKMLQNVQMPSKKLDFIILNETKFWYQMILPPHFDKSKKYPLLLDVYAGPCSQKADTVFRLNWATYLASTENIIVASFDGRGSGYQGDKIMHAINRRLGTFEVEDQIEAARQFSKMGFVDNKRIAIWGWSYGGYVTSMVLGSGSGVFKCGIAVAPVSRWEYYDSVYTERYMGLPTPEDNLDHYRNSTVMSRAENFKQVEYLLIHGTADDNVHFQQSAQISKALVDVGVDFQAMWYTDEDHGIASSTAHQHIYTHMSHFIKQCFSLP

[1] = tested on: MB49 murine urothelial carcinoma; assay: MB49 efficacy studies; assay type: in vivo, mouse
recombinant human FAP = recombinant human FAP (Homo sapiens (Human), UniProt Q12884); assay: In vitro inhibition assay, fibroblast activation protein; assay type: biochemical; conditions: Z-Gly-Pro-AMC substrate
Chain of recombinant human FAP (Q12884 whole entry): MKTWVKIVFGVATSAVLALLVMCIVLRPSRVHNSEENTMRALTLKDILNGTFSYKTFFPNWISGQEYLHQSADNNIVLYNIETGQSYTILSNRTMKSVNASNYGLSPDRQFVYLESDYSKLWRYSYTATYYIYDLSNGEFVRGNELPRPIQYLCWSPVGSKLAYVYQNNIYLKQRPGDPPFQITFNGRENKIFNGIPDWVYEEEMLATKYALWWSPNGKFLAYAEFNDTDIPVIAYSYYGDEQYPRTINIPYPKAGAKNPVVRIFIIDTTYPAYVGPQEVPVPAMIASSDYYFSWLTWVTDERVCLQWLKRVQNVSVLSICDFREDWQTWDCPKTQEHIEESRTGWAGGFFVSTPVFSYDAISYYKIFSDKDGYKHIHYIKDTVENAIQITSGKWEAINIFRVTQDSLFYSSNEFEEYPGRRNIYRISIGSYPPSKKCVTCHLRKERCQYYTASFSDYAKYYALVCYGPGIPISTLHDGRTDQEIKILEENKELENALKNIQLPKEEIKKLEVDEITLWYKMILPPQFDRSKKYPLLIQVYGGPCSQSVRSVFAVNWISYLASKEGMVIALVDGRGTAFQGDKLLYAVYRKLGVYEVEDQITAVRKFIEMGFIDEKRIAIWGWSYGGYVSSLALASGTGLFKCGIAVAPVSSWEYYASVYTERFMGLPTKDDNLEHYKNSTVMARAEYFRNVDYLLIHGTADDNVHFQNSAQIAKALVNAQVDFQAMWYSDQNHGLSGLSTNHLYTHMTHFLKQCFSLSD

[2] = cited from earlier work
recombinant human DPP8 = recombinant human DPP8 (Homo sapiens (Human), UniProt Q6V1X1); assay: In vitro inhibition assay, dipeptidyl peptidase 8; assay type: biochemical; conditions: recombinant human DPP8, Gly-Pro-AMC substrate
Chain of recombinant human DPP8 (Q6V1X1 whole entry): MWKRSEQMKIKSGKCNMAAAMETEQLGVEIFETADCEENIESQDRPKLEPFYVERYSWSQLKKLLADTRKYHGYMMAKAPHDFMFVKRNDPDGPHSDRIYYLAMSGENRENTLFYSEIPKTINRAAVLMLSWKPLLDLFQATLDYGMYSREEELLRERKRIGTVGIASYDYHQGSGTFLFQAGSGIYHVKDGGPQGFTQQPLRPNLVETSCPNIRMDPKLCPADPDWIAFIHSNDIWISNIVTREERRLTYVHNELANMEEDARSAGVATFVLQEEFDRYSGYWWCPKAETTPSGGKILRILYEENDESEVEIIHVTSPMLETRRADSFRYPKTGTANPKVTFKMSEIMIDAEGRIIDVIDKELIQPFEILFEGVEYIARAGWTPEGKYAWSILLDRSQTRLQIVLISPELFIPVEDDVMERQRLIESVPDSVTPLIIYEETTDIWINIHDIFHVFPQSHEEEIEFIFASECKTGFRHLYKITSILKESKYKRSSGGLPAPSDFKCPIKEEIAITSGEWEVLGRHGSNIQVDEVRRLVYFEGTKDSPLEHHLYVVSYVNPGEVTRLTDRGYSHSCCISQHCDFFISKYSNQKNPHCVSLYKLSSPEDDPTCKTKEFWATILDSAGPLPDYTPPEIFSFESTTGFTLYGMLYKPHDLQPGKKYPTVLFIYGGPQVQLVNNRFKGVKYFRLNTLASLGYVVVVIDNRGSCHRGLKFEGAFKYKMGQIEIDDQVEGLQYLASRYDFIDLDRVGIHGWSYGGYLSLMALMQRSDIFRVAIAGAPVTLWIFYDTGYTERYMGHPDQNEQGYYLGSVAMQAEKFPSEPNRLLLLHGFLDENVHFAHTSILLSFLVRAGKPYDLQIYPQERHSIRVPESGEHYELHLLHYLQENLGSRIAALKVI

recombinant human DPP9 = recombinant human DPP9 (Homo sapiens (Human), UniProt Q86TI2); assay: In vitro inhibition assay, dipeptidyl peptidase 9; assay type: biochemical; conditions: recombinant human DPP9, Gly-Pro-AMC substrate
Chain of recombinant human DPP9 (Q86TI2 whole entry): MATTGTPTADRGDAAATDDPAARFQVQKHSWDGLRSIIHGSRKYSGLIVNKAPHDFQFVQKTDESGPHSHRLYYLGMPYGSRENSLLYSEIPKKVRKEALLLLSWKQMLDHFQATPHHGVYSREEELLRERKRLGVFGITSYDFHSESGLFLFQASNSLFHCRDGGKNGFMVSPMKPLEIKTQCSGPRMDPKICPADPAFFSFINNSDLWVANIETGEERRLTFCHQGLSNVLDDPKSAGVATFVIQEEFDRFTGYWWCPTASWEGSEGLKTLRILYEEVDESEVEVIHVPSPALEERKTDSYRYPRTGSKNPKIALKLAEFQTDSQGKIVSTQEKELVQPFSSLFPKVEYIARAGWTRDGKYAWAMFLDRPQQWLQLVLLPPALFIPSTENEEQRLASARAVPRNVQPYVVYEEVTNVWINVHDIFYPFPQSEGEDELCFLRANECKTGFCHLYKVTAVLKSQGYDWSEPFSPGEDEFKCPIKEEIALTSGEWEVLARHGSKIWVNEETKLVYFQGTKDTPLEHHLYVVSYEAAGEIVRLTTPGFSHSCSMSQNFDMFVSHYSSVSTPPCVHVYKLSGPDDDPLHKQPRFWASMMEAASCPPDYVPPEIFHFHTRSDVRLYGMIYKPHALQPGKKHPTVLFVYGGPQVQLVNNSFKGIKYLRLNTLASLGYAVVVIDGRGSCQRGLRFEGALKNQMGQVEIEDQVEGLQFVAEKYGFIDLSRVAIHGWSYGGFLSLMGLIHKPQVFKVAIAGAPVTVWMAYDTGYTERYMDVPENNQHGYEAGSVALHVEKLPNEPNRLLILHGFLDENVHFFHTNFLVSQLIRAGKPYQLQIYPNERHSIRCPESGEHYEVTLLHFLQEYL

Q: For `CC[C@@H](C)[C@H](N)C(=O)N1Cc2ccccc2[C@H]1B(O)O` [1049 C], which IC50 (recombinant human DPPII) is on record?
A: The IC50 was 0.095 µM.

Q: What about the IC50 (recombinant human PREP) of the same molecule?
A: The IC50 was over 100 µM.

Q: Which IC50 (recombinant human DPPII) does the source give for `CC(C)[C@@H](C(=O)N1CCC[C@H]1B(O)O)N(C)C` [2504 C] here?
A: Its IC50 is 10 µM.

Q: With `N[C@H](C(=O)N1Cc2ccccc2C1)C1CCCCC1` [3360 C] as the molecule, how does the IC50 (recombinant human DPPIV) read?
A: The IC50 was 1.38 µM.

Q: With `CC(C)[C@H](N)C(=O)N1C[C@@H](O)C[C@H]1B(O)O` [4312 S] as the molecule, how does the IC50 (recombinant human DPPIV) read?
A: The IC50 was 0.009 µM.

Q: And the IC50 (recombinant human DPPII)?
A: The IC50 was 0.61 µM.

Q: Which “tumor growth rates compared to control (vehicle)” value ([1]; celecoxib alone, various concentrations, MB49 tumor bearing mice) does the source give for `Cc1ccc(-c2cc(C(F)(F)F)nn2-c2ccc(S(N)(=O)=O)cc2)cc1` [celecoxib] here?
A: Its value is “no observed differences in tumor growth rates compared to control”.

Q: For `C[C@H](N)C(=O)N1CCC[C@H]1B(O)O` [compound 1129], which IC50 (recombinant human DPPII) is on record?
A: Its IC50 is 0.0014 µM and 0.001 µM.

Q: With `O=C([C@@H]1CCCN1)N1CCC[C@H]1B(O)O` [compound 1181] as the molecule, how does the IC50 (recombinant human DPPIV) read?
A: The IC50 was 0.0013 µM.

Q: And the IC50 (recombinant human DPPII)?
A: Its IC50 is 0.054 µM.

Q: Which IC50 (recombinant human DPPIV) does the source give for `N[C@@H](Cc1ccccc1)C(=O)N1CCC[C@H]1B(O)O` [compound 1336] here?
A: The IC50 was 0.002 µM.

Q: With `CC(C)C[C@H](N)C(=O)N1CCC[C@H]1B(O)O` [compound 1454] as the molecule, how does the IC50 (recombinant human DPPIV) read?
A: The IC50 was 0.0016 µM.

Q: And the IC50 (recombinant human DPPII)?
A: Its IC50 is 0.001 µM.

Q: And the IC50 (recombinant human FAP)?
A: Its IC50 is 0.15 µM.

Q: With `NCCCC[C@H](N)C(=O)N1CCC[C@H]1B(O)O` [compound 1700] as the molecule, how does the IC50 (recombinant human DPPIV) read?
A: The IC50 was 0.0013 µM.

Q: Which results are given for `N[C@H](C(=O)N1CCC[C@H]1B(O)O)C1CCCCC1` [compound 1797]?
A: IC50 (recombinant human DPPIV): 0.0012 µM; IC50 (recombinant human DPPII): 0.0021 µM

Q: Which results are given for `CC(C)[C@H](N)C(=O)N1CCC[C@H]1B(O)O` [compound 2054, Valine-boroProline]?
A: tumor regression in combination with celecoxib ([1]; 20 microgram dose of Val-boroPro, individual animal curves): facilitated the achievement of tumor regression; antitumor activity in combination with celecoxib ([1]; MB49 tumor bearing mice, Val-boroPro + celecoxib): increased the antitumor activity of Val-boroPro markedly (statistically significantly) and in a dose-dependent manner; efficacy in phase II trials ([2]; in combination with standard cytotoxic chemotherapy): did not meet the endpoints for efficacy; partial response ([2]; phase I, talabostat and rituximab, rituximab-resistant lymphoma): 3 patients; patients with improvement in grade 3 neutropenia ([2]; phase I, thirteen patients, concomitant immunosuppressive chemotherapy): five

Q: Which IC50 (recombinant human FAP) does the source give for `C[C@H](N)C(=S)N1CCC[C@H]1B(O)O` [compound 2243] here?
A: Its IC50 is 0.13 µM.

Q: For `CN(CB(O)O)C(=O)[C@@H](N)CCC(=O)O` [compound 2408], which IC50 (recombinant human DPPII) is on record?
A: Its IC50 is 1.7 µM.

Q: And the IC50 (recombinant human FAP)?
A: The IC50 was 11 µM.

Q: What does the source list for `CC(C)[C@H](N)C(=O)N1C[C@H](O)C[C@H]1B(O)O` [compound 4312]?
A: IC50 (recombinant human DPPIV): 0.002 µM; IC50 (recombinant human DPPII): 6.4 µM

Q: For `CC[C@H](C)[C@H](N)C(=O)N1CCC[C@H]1B(O)O` [compound 4316], which IC50 (recombinant human DPPIV) is on record?
A: The IC50 was 0.0012 µM.

Q: What about the IC50 (recombinant human DPPII) of the same molecule?
A: Its IC50 is 0.0078 µM.

Q: What does the source list for `CC[C@@H](C)[C@H](N)C(=O)N1CCC[C@H]1B(O)O` [compound 4317]?
A: IC50 (recombinant human DPPIV): 0.002 µM; IC50 (recombinant human DPPII): 0.012 µM

Q: For `CC[C@@H](C)C(N)C(=O)N1Cc2ccc(F)cc2C1` (some centres unmarked) [compound 5291, reference compound], which IC50 (recombinant human FAP) is on record?
A: The IC50 was over 100 µM.

Q: What about the IC50 (recombinant human PREP) of the same molecule?
A: Its IC50 is over 100 µM.

Q: Which IC50 (recombinant human DPPIV) does the source give for `CC(C)[C@H](N)C(=O)N1CCC[C@H]1C(=O)CO` [compound 5298] here?
A: Its IC50 is 0.0045 µM.

Q: What about the IC50 (recombinant human DPPII) of the same molecule?
A: Its IC50 is 4.18 µM.

Q: What about the IC50 (recombinant human FAP) of the same molecule?
A: The IC50 was over 100 µM.

Q: And the IC50 (recombinant human PREP)?
A: The IC50 was over 100 µM.

Q: For `N[C@H](C(=O)N1Cc2ccc(F)cc2C1)C1CCCCC1` [compound 5311], which IC50 (recombinant human DPP8) is on record?
A: Its IC50 is 81 µM.

Q: And the IC50 (recombinant human DPPIV)?
A: The IC50 was over 100 µM.

Q: And the IC50 (recombinant human DPPII)?
A: Its IC50 is 63.8 µM.

Q: What about the IC50 (recombinant human FAP) of the same molecule?
A: The IC50 was over 100 µM.

Q: What about the IC50 (recombinant human PREP) of the same molecule?
A: The IC50 was over 100 µM.

Q: Which results are given for `NC(=O)C[C@H](N)C(=O)N1Cc2ccc(F)cc2C1` [compound 5316]?
A: IC50 (recombinant human DPP8): 4.11 µM; IC50 (recombinant human DPPIV): > 100 µM; IC50 (recombinant human DPPII): 92.2 µM; IC50 (recombinant human FAP): > 100 µM; IC50 (recombinant human PREP): > 100 µM

Q: For `CN(C)C(=O)C[C@H](N)C(=O)N1Cc2ccc(F)cc2C1` [compound 5317], which IC50 (recombinant human DPPIV) is on record?
A: Its IC50 is 54.8 µM.

Q: And the IC50 (recombinant human DPPII)?
A: Its IC50 is 22.1 µM.

Q: What about the IC50 (recombinant human FAP) of the same molecule?
A: The IC50 was over 100 µM.

Q: And the IC50 (recombinant human PREP)?
A: The IC50 was over 100 µM.

Q: Which IC50 (recombinant human DPPII) does the source give for `CC(C)[C@H](N)C(=O)N1Cc2ccc(F)cc2C1` [compound 5321] here?
A: Its IC50 is 44.9 µM.

Q: What about the IC50 (recombinant human FAP) of the same molecule?
A: The IC50 was over 100 µM.

Q: And the IC50 (recombinant human PREP)?
A: The IC50 was over 100 µM.

Q: For `CC(C)(C)[C@H](N)C(=O)N1Cc2ccc(F)cc2C1` [compound 5322], which IC50 (recombinant human DPPII) is on record?
A: Its IC50 is 36.8 µM.

Q: What about the IC50 (recombinant human FAP) of the same molecule?
A: Its IC50 is over 100 µM.

Q: And the IC50 (recombinant human PREP)?
A: Its IC50 is over 100 µM.

Q: For `O=C([C@@H]1CCCCN1)N1Cc2ccc(F)cc2C1` [compound 5323], which IC50 (recombinant human DPP8) is on record?
A: Its IC50 is 0.862 µM.

Q: And the IC50 (recombinant human DPP9)?
A: The IC50 was 0.305 µM.

Q: What about the IC50 (recombinant human DPPIV) of the same molecule?
A: Its IC50 is 60.3 µM.

Q: What about the IC50 (recombinant human DPPII) of the same molecule?
A: The IC50 was over 100 µM.

Q: What about the IC50 (recombinant human FAP) of the same molecule?
A: Its IC50 is over 100 µM.

Q: And the IC50 (recombinant human PREP)?
A: Its IC50 is over 100 µM.

Q: Which results are given for `NCCCC[C@H](N)C(=O)N1Cc2ccc(F)cc2C1` [compound 5325]?
A: IC50 (recombinant human DPP8): 0.123 µM; IC50 (recombinant human DPPIV): > 100 µM; IC50 (recombinant human DPPII): 0.842 µM; IC50 (recombinant human FAP): > 100 µM; IC50 (recombinant human PREP): > 100 µM

Q: For `N[C@H](C(=O)N1Cc2ccc(F)cc2C1)C1CCCC1` [compound 5333], which IC50 (recombinant human DPPII) is on record?
A: Its IC50 is 26.5 µM.

Q: And the IC50 (recombinant human FAP)?
A: Its IC50 is over 100 µM.

Q: For `CC[C@H](N)C(=O)N1CCC[C@H]1B(O)O` [compound 5466], which IC50 (recombinant human DPPII) is on record?
A: The IC50 was 0.0029 µM.

Q: With `NC1(C(=O)N2Cc3ccc(F)cc3C2)CCNCC1` [compound 5552] as the molecule, how does the IC50 (recombinant human DPP8) read?
A: Its IC50 is over 100 µM.

Q: And the IC50 (recombinant human DPP9)?
A: The IC50 was over 100 µM.

Q: And the IC50 (recombinant human DPPII)?
A: Its IC50 is over 100 µM.

Q: And the IC50 (recombinant human FAP)?
A: The IC50 was 41.1 µM.

Q: With `NC1(C(=O)N2Cc3ccccc3C2)CCNCC1` [compound 5553] as the molecule, how does the IC50 (recombinant human DPP8) read?
A: Its IC50 is over 100 µM.

Q: And the IC50 (recombinant human DPPIV)?
A: The IC50 was over 100 µM.

Q: What about the IC50 (recombinant human DPPII) of the same molecule?
A: The IC50 was 0.978 µM.

Q: And the IC50 (recombinant human FAP)?
A: The IC50 was over 100 µM.

Q: What does the source list for `NC1(C(=O)N2CCSC2)CCNCC1` [compound 5554]?
A: IC50 (recombinant human DPP8): > 100 µM; IC50 (recombinant human DPP9): > 100 µM; IC50 (recombinant human DPPIV): > 100 µM; IC50 (recombinant human DPPII): 36.5 µM; IC50 (recombinant human FAP): > 100 µM; IC50 (recombinant human PREP): 25.1 µM

Q: Which IC50 (recombinant human DPPIV) does the source give for `N[C@@H](CCC(=O)O)C(=O)N1CCC[C@H]1B(O)O` [compound 8120] here?
A: Its IC50 is 0.0011 µM.

Q: And the IC50 (recombinant human DPPII)?
A: The IC50 was 0.012 µM.

Q: Which results are given for `CC(C)(C)[C@H](N)C(=O)N1CCC[C@H]1C#N` [compound 9987]?
A: IC50 (recombinant human DPPII): > 100 µM; IC50 (recombinant human PREP): > 100 µM
